# Reference: patent US20250127863A1, “ANTIMICROBIAL PEPTIDE FOR ONYCHOMYCOSIS” (CBMR SCIENTIFIC NANOSCIENCE B.V., priority 2019, published 2025)
# No end group written: not given here.
# Tests used:
# Nannizzia otae = assay: MIC90 growth inhibition; format: cell-based; conditions: RPMI 1640 one-fourth strength
# Experimental: (§1) The minimum inhibitory concentration (MIC) value is defined as the lowest sample concentration that inhibited growth. In the Examples, the MIC90 value is presented, which MIC90 values are determined according to established methods known to the person with the skills in the relevant art. Experiments; 1×10E5 CFU of various strains/ml were incubated for 24-48 h at 37° C. in 4× diluted medium of RPMI 1640 with the indicated concentrations of antimicrobial peptide hLF(1-11) [SEQ ID NO: 3]. As controls various strains cells were incubated for 24-48 h at 37° C. with no agent (antimicrobial peptide), and subsequently, growth of the microbial organism (e.g. yeast, bacterium) was monitored by using spectrophotometry with a spectrophotometer at 620 nm. […] ND=Not done. Representative single assay data are listed rather than a range, for clarity reasons and for ease of comparison of peptide efficacy. The MIC was calculated as the lowest antibiotic (antimicrobial peptide) concentration at which growth of the assessed yeast or bacterium (microbe) was inhibited (inhibitory concentration IC90).
# Fonsecaea pedrosoi = assay: MIC90 growth inhibition; format: cell-based; conditions: RPMI 1640 one-fourth strength
# Experimental: as §1
# Cryptococcus curvatus = assay: MIC90 growth inhibition; format: cell-based; conditions: RPMI 1640 one-fourth strength
# Experimental: as §1
# [1] = system: Malassezia furfur CBS-7982; assay: MIC90 growth inhibition; format: cell-based; conditions: RPMI 1640 one-fourth strength
# Experimental: as §1
# Aspergillus ungius = assay: MIC90 growth inhibition; format: cell-based; conditions: RPMI 1640 one-fourth strength
# Experimental: as §1
# Aspergillus nidulans = assay: MIC90 growth inhibition; format: cell-based; conditions: RPMI 1640 one-fourth strength
# Experimental: as §1
# Streptococcus mutans = assay: MIC90 growth inhibition; format: cell-based; conditions: RPMI 1640 one-fourth strength
# Experimental: as §1
# Entrobacter cloacae = assay: MIC90 growth inhibition; format: cell-based; conditions: RPMI 1640 one-fourth strength
# Experimental: as §1
# [2] = system: Cryptococcus neoformans ▴ SKN7 (UMC); assay: MIC90 growth inhibition; format: cell-based; conditions: genetically modified type species, RPMI 1640 one-fourth strength
# Experimental: as §1
# Trichophyton tonsurans = assay: MIC90 growth inhibition; format: cell-based; conditions: RPMI 1640 one-fourth strength
# Experimental: as §1
# Trichophyton mucoides = assay: MIC90 growth inhibition; format: cell-based; conditions: RPMI 1640 one-fourth strength
# Experimental: as §1
# Meyerozyma spp. = assay: MIC90 growth inhibition; format: cell-based; conditions: RPMI 1640 one-fourth strength
# Experimental: as §1
# Penicillium italicum = assay: MIC90 growth inhibition; format: cell-based; conditions: RPMI 1640 one-fourth strength
# Experimental: as §1
# [3] = system: M. guilliermondii CBS-2030 (Perugia); assay: MIC90 growth inhibition; format: cell-based; conditions: RPMI 1640 one-fourth strength
# Experimental: as §1
# [4] = system: Staphylococcus aureus 10649; assay: MIC90 growth inhibition; format: cell-based; conditions: RPMI 1640 one-fourth strength
# Experimental: as §1
# Sporotrichium spp = assay: MIC90 growth inhibition; format: cell-based; conditions: RPMI 1640 one-fourth strength
# Experimental: as §1
# Trichophyton spp = assay: MIC90 growth inhibition; format: cell-based; conditions: Trichophyton spp (Table 1); RPMI 1640 one-fourth strength
# Experimental: as §1
# [5] = system: Trichophyton mentagrophytes; assay: MIC90 growth inhibition; format: cell-based; conditions: RPMI 1640 one-fourth strength
# Experimental: as §1
# [6] = system: Staphylococcus aureus (MRSA); assay: MIC90 growth inhibition; format: cell-based; conditions: RPMI 1640 one-fourth strength
# Experimental: as §1
# [7] = system: Saccharomyces cerivisiae ATCC 2601; assay: MIC90 growth inhibition; format: cell-based; conditions: RPMI 1640 one-fourth strength
# Experimental: as §1
# [8] = system: Paracoccidioides brasiliensis; assay: MIC90 growth inhibition; format: cell-based; conditions: RPMI 1640 one-fourth strength
# Experimental: as §1
# [9] = system: Saccharomyces cerivisiae CMC-520; assay: MIC90 growth inhibition; format: cell-based; conditions: RPMI 1640 one-fourth strength
# Experimental: as §1
# [10] = system: Streptocococcus mitis 033; assay: MIC90 growth inhibition; format: cell-based; conditions: RPMI 1640 one-fourth strength
# Experimental: as §1
# Candida spp. = assay: MIC90 growth inhibition; format: cell-based; conditions: RPMI 1640 one-fourth strength
# Experimental: as §1
# [11] = system: Saccharomyces cerivisiae ATCC 2602; assay: MIC90 growth inhibition; format: cell-based; conditions: RPMI 1640 one-fourth strength
# Experimental: as §1
# Cladosporium spp = assay: MIC90 growth inhibition; format: cell-based; conditions: RPMI 1640 one-fourth strength
# Experimental: as §1
# Aspergillus fumigatus = assay: MIC90 growth inhibition; format: cell-based; conditions: RPMI 1640 one-fourth strength
# Experimental: as §1
# Zygosaccharomyces bailii = assay: MIC90 growth inhibition; format: cell-based; conditions: RPMI 1640 one-fourth strength
# Experimental: as §1
# Moraxella catarrhalis = assay: MIC90 growth inhibition; format: cell-based; conditions: RPMI 1640 one-fourth strength
# Experimental: as §1
# Helicobacter pylori = assay: MIC90 growth inhibition; format: cell-based; conditions: RPMI 1640 one-fourth strength
# Experimental: as §1
# Nannizzia incurvata = assay: MIC90 growth inhibition; format: cell-based; conditions: RPMI 1640 one-fourth strength
# Experimental: as §1
# onychomycosis = assay: Clinical study for treating onychomycosis (Example 2); format: in vivo, human; conditions: twice per day
# Experimental: A peptide solution was tested for its treatment effect on onychomycosis in human subjects. The peptide was antimicrobial peptide hLF1-11 (GRRRRSVQWCA) [SEQ ID NO: 3] in water comprising 0.01% by volume acetic acid, based on the total volume of the peptide solution.
# Forty two patients are treated with the peptide solution; 20 patients (4 male/16 female) were treated with a solution comprising a low concentration of 3 mg/L of the peptide (dose twice per day), 10 patients (3 male/7 female) were treated with the peptide solution with a high concentration of 30 mg/L of the peptide (dose twice per day) and 12 patients (8 male/4 female) with a combination of high and low concentration (4 weeks 30 mg/L following by 3 mg/L continuing treatment, dose twice per day).
# Patients were categorized into groups based on their skin and nail disorders (visible inspection by independent pedicure); low to mild fungal nail problems (treatment group with 3 mg/L for patients in this group), mild to severe fungal nail problems (combination group 30 mg/L-3 mg/L) and highly infected onychomycosis (30 mg/L group).
# Results: 90% of the patients observed an improvement in the appearance of the nail after 2 weeks, 92% observed improvement after 4-10 weeks of treatment. Complete recovery was visible for >98% of the patients after 24 weeks. No exclusions were made. Some patients with severe infections (diabetic/autoimmune related) in the high/low combination treatment group were treated longer with the peptide at high dose. All patients continued the treatment as long as it takes to recover completely from the fungal nail infection (in general, relating to the outgrowth of a complete new nail). Duration of the trial was 6-12 months (depending on the infection and the outgrowth of the nail).
sequence,measurement,setting,value
"GRRRRSVQWCA [hLF1-11, Gly Arg Arg Arg Arg Ser Val Gln Trp Cys Ala]",Inhibitory concentration MIC (MIC90),Nannizzia otae,MIC = 60 μg/ml
same,Inhibitory concentration MIC (MIC90),Fonsecaea pedrosoi,MIC = 5 μg/ml
same,Inhibitory concentration MIC (MIC90),Cryptococcus curvatus,MIC = 9 μg/ml
same,Inhibitory concentration MIC (MIC90),[1],MIC = 100 μg/ml
same,Inhibitory concentration MIC (MIC90),Aspergillus ungius,MIC = 3.1-25 μg/ml
same,Inhibitory concentration MIC (MIC90),Aspergillus nidulans,MIC = 2.5-12.5 μg/ml
same,Inhibitory concentration MIC (MIC90),Streptococcus mutans,MIC = 3.1 μg/ml
same,Inhibitory concentration MIC (MIC90),Entrobacter cloacae,MIC = 6.3 μg/ml
same,Inhibitory concentration MIC (MIC90),[2],MIC = 6.3 μg/ml
same,Inhibitory concentration MIC (MIC90),Trichophyton tonsurans,MIC = 5-40 μg/ml
same,Inhibitory concentration MIC (MIC90),Trichophyton mucoides,MIC = 12.5-50 μg/ml
same,Inhibitory concentration MIC (MIC90),Meyerozyma spp.,MIC = 25-50 μg/mL
same,Inhibitory concentration MIC (MIC90),Penicillium italicum,MIC = 8 μM
same,Inhibitory concentration MIC (MIC90),[3],MIC = 50 μg/mL
same,Inhibitory concentration MIC (MIC90),[4],MIC = 1.6 μg/ml
same,Inhibitory concentration MIC (MIC90),Sporotrichium spp,MIC = 40 μg/ml
same,Inhibitory concentration MIC (MIC90),Trichophyton spp,MIC = 6.3-45 μg/ml
same,Inhibitory concentration MIC (MIC90),[5],MIC = 6.3-45 μg/ml
same,Inhibitory concentration MIC (MIC90),[6],MIC = 1.6 μg/ml
same,Inhibitory concentration MIC (MIC90),[7],MIC = 25 μg/mL
same,Inhibitory concentration MIC (MIC90),[8],MIC = 0.63-1.25 μg/ml
same,Inhibitory concentration MIC (MIC90),[9],MIC = 50 μg/ml
same,Inhibitory concentration MIC (MIC90),[10],MIC = 6.3 μg/ml
same,Inhibitory concentration MIC (MIC90),Candida spp.,MIC = 12.5-50 μg/ml
same,Inhibitory concentration MIC (MIC90),[11],MIC = 25 μg/ml
same,Inhibitory concentration MIC (MIC90),Cladosporium spp,MIC = 3.1-12.5 μg/ml
same,Inhibitory concentration MIC (MIC90),Aspergillus fumigatus,MIC = 2.5-25 μg/ml
same,Inhibitory concentration MIC (MIC90),Zygosaccharomyces bailii,MIC = 8 μM
same,Inhibitory concentration MIC (MIC90),Moraxella catarrhalis,MIC = 2 μg/ml
same,Inhibitory concentration MIC (MIC90),Helicobacter pylori,MIC = 12.5-50 μg/ml
same,Inhibitory concentration MIC (MIC90),Nannizzia incurvata,MIC = 18 μg/ml
same,patients who observed an improvement in the appearance of the nail,"onychomycosis; after 2 weeks, 3 mg/L, 30 mg/L or combination, 42 patients",90%
same,patients who observed improvement,onychomycosis; after 4-10 weeks of treatment,92%
same,patients with complete recovery visible,onychomycosis; after 24 weeks,> 98%
